From patent US11932636B2, “RAD51 inhibitors” (Cyteir Therapeutics, Inc., priority 2019, dated 2024)

test system: Daudi cells (AID positive); test: Compound primary screening: cell death in AID positive Daudi cells (Cell-Titer Glo, Day 7); assay type: cell-based; details: Homo sapiens, 168 h; Daudi cells, AID positive; cell death on Day 7, Cell-Titer Glo; read-out: Cellular activity in AID + (Daudi)
Procedure, shortened: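 AID-positive Daudi cells were seeded at 1250 cells per well and treated with serially diluted compound delivered from a DMSO/media master plate. Cultures were incubated at 37 °C, and cell death was measured on Day 7 with Cell-Titer Glo luminescence.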

| SMILES | EC50 [nM] |
| --- | --- |
| CC(C)CCOc1ccc(-c2cnc([C@H]3CC[C@H](NC(=O)OC(C)C)CC3)s2)c(S(=O)(=O)NC(C)(C)C)c1 [Compound 101, isopropyl trans-N-[4-[5-[2-(tert-butylsulfamoyl)-4-isopentyloxy-phenyl]thiazol-2-yl]cyclohexyl]carbamate] | 1000 to 10000 |
| CC(C)OC(=O)N[C@H]1CC[C@H](c2ncc(-c3ccc(-c4ccc5occc5c4)cc3S(=O)(=O)NC(C)(C)C)s2)CC1 [Compound 11, isopropyl (trans-4-(5-(4-(benzofuran-5-yl)-2-(N-(tert-butyl)sulfamoyl)phenyl)thiazol-2-yl)cyclohexyl)carbamate] | 1000 to 10000 |
| CC(C)OC(=O)N[C@H]1CC[C@H](c2ncc(-c3ccc(Nc4cccnn4)cc3S(=O)(=O)NC(C)(C)C)s2)CC1 [Compound 174, isopropyl trans-N-[4-[5-[2-(tert-butylsulfamoyl)-4-(pyridazin-3-ylamino)phenyl]thiazol-2-yl]cyclohexyl]carbamate] | 100 to 1000 |
| CC(C)OC(=O)N[C@H]1CC[C@H](c2ncc(-c3ccc(N)cc3S(=O)(=O)N3CCCC3)s2)CC1 [Compound 88, isopropyl trans-N-[4-[5-(4-amino-2-pyrrolidin-1-ylsulfonyl-phenyl)thiazol-2-yl]cyclohexyl]carbamate] | 100 to 1000 |
| CCNS(=O)(=O)c1cc(N(C)CCOC)ccc1-c1cnc(C2CCC(NC(=O)OC(C)C)CC2)s1 (stereo not drawn) [Compound 132, isopropyl trans-N-[4-[5-[2-(ethylsulfamoyl)-4-[(2-methoxyethyl) (methyl))amino]phenyl]thiazol-2-yl]cyclohexyl]carbamate] | 100 to 1000 |
| CCNS(=O)(=O)c1cc(Nc2ccnc(=O)[nH]2)ccc1-c1cnc([C@H]2CC[C@H](NC(=O)OC(C)C)CC2)s1 [Compound 156, isopropyl trans-N-[4-[5-[2-(ethylsulfamoyl)-4-[(2-hydroxypyrimidin-4-yl)amino]phenyl]thiazol-2-yl]cyclohexyl]carbamate] | 100 to 1000 |
| CCNS(=O)(=O)c1cc(NC2(C)CNC2)ccc1-c1cnc([C@H]2CC[C@H](NC(=O)OC(C)C)CC2)s1 [Compound 147, isopropyl trans-N-[4-[5-[2-(ethylsulfamoyl)-4-[(3-methylazetidin-3-yl)amino]phenyl]thiazol-2-yl]cyclohexyl]carbamate] | 1000 to 10000 |
| CC(C)OC(=O)N[C@H]1CC[C@H](c2ncc(-c3ccc(OCCN(C)C(=O)OC(C)(C)C)cc3S(=O)(=O)NC(C)(C)C)s2)CC1 [Compound 29, tert-butyl (2-(3-(N-(tert-butyl)sulfamoyl)-4-(2-(trans-4-((isopropoxycarbonyl)amino)cyclohexyl)thiazol-5-yl)phenoxy)ethyl)(methyl)carbamate] | 1000 to 10000 |
| CCNS(=O)(=O)c1cc(CC(=O)NC(C)C)ccc1-c1cnc(N2CCN(C(=O)OC3COC3)CC2)s1 [Compound 96, oxetan-3-yl 4-(5-(2-(N-ethylsulfamoyl)-4-(2-(isopropylamino)-2-oxoethyl)phenyl)thiazol-2-yl)piperazine-1-carboxylate] | > 10000 |
| CC(C)OC(=O)N[C@H]1CC[C@H](c2ncc(-c3ccc(Nc4ncc[nH]4)cc3S(=O)(=O)NC(C)(C)C)s2)CC1 [Compound 38, isopropyl trans-N-[4-[5-[2-(tert-butylsulfamoyl)-4-(1H-imidazol-2-ylamino)phenyl]thiazol-2-yl]cyclohexyl]carbamate] | < 100 |
| CNCCOc1ccc(-c2cnc([C@H]3CC[C@H](NC(=O)OC(C)C)CC3)s2)c(S(=O)(=O)NC(C)(C)C)c1 [Compound 32, isopropyl (trans-4-(5-(2-(N-(tert-butyl)sulfamoyl)-4-(2-(methylamino)ethoxy)phenyl)thiazol-2-yl)cyclohexyl)carbamate] | > 10000 |
| Cc1[nH]ncc1-c1ccc(-c2cnc([C@H]3CC[C@H](NC(=O)OC(C)C)CC3)s2)c(S(=O)(=O)NC(C)(C)C)c1 [Compound 17, isopropyl (trans-4-(5-(2-(N-(tert-butyl)sulfamoyl)-4-(5-methyl-1H-pyrazol-4-yl)phenyl)thiazol-2-yl)cyclohexyl)carbamate] | 1000 to 10000 |
| CC(C)CCOc1ccc(-c2cnc([C@H]3CC[C@H](NC(=O)OC4COC4)CC3)s2)c(S(=O)(=O)NC(C)(C)C)c1 [Compound 102, oxetan-3-yl trans-N-[4-[5-[2-(tert-butylsulfamoyl)-4-isopentyloxy-phenyl]thiazol-2-yl]cyclohexyl]carbamate] | 1000 to 10000 |
| CCNS(=O)(=O)c1cc(Nc2ccncc2)ccc1-c1cnc([C@H]2CC[C@H](NC(=O)OC(C)C)CC2)s1 [Compound 125, isopropyl trans-N-[4-[5-[2-(ethylsulfamoyl)-4-[(pyridin-4-yl)amino]phenyl]thiazol-2-yl]cyclohexyl]carbamate] | < 100 |
| CCNS(=O)(=O)c1cc(CC(=O)N2CCOCC2)ccc1-c1cnc([C@H]2CC[C@H](NC(=O)OC(C)C)CC2)s1 [Compound 84, isopropyl trans-N-[4-[5-[4-[2-oxo-2-(morpholin-4-yl)ethyl]-2-(ethyl-sulfamoyl)phenyl]thiazol-2-yl]cyclohexyl]carbamate] | 100 to 1000 |
| CCNS(=O)(=O)c1cc(NC2(CC(C)C)COC2)ccc1-c1cnc([C@H]2CC[C@H](NC(=O)OC(C)C)CC2)s1 [Compound 70, isopropyl trans-N-[4-[5-[2-(ethylsulfamoyl)-4-[(3-isobutyloxetan-3-yl)amino]phenyl]thiazol-2-yl]cyclohexyl]carbamate] | 100 to 1000 |
| CCNS(=O)(=O)c1cc(NC2CN(C(=O)C(C)C)C2)ccc1-c1cnc([C@H]2CC[C@H](NC(=O)OC(C)C)CC2)s1 [Compound 146, isopropyl trans-N-[4-[5-[2-(ethylsulfamoyl)-4-[[1-(2-methylpropanoyl)azetidin-3-yl]amino]phenyl]thiazol-2-yl]cyclohexyl]carbamate] | < 100 |
| CC(C)OC(=O)N[C@H]1CC[C@H](c2ncc(-c3ccc(O)cc3S(=O)(=O)NC(C)(C)C)s2)CC1 [Compound 23, isopropyl (trans-4-(5-(2-(N-(tert-butyl)sulfamoyl)-4-hydroxyphenyl)thiazol-2-yl)cyclohexyl)carbamate] | 100 to 1000 |
| CCNS(=O)(=O)c1cc(Nc2nnco2)ccc1-c1cnc([C@H]2CC[C@H](NC(=O)OC(C)C)CC2)s1 [Compound 118, isopropyl trans-N-[4-[5-[2-(ethylsulfamoyl)-4-[(1,3,4-oxadiazol-2-yl)amino]phenyl]thiazol-2-yl]cyclohexyl]carbamate] | 100 to 1000 |
| CC(C)COCc1ccc(-c2cnc([C@H]3CC[C@H](NC(=O)OC4COC4)CC3)s2)c(S(=O)(=O)NC(C)(C)C)c1 [Compound 34, oxetan-3-yl trans-N-[4-[5-[2-(tert-butylsulfamoyl)-4-(isobutoxymethyl)phenyl]thiazol-2-yl]cyclohexyl]carbamate] | 1000 to 10000 |
| CC(C)OC(=O)N[C@H]1CC[C@H](c2ncc(-c3ccc(CN)cc3S(=O)(=O)NC(C)(C)C)s2)CC1 [Compound 1, isopropyl (trans-4-(5-(4-(aminomethyl)-2-(N-(tert-butyl)sulfamoyl)phenyl)thiazol-2-yl)cyclohexyl)carbamate] | > 10000 |
| COc1ccc(-c2cnc([C@H]3CC[C@H](NC(=O)OC(C)C)CC3)s2)c(S(=O)(=O)NC(C)(C)C)c1 [Compound 28, isopropyl (trans-4-(5-(2-(N-(tert-butyl)sulfamoyl)-4-methoxyphenyl)thiazol-2-yl)cyclohexyl)carbamate] | > 10000 |
| CCNS(=O)(=O)c1cc(OCCC(C)C)ccc1-c1cnc([C@H]2CC[C@H](NC(=O)OC(C)C)CC2)s1 [Compound 99, isopropyl trans-N-[4-[5-[2-(ethylsulfamoyl)-4-isopentyloxy-phenyl]thiazol-2-yl]cyclohexyl]carbamate] | 100 to 1000 |
| CC(C)OC(=O)N[C@H]1CC[C@H](c2ncc(-c3ccc(-c4ccc(CO)nc4)cc3S(=O)(=O)NC(C)(C)C)s2)CC1 [Compound 20, isopropyl (trans-4-(5-(2-(N-(tert-butyl)sulfamoyl)-4-(6-(hydroxymethyl)pyridin-3-yl)phenyl)thiazol-2-yl)cyclohexyl)carbamate] | 1000 to 10000 |
| CCNS(=O)(=O)c1cc(N2CC(OC(C)C)C2)ccc1-c1cnc([C@H]2CC[C@H](NC(=O)OC(C)C)CC2)s1 [Compound 114, isopropyl trans-N-[4-[5-[2-(ethylsulfamoyl)-4-[3-isopropoxyazetidin-1-yl]phenyl]thiazol-2-yl]cyclohexyl]carbamate] | 100 to 1000 |
| CC(C)OC(=O)N[C@H]1CC[C@H](c2ncc(-c3ccc(-c4cc[nH]n4)cc3S(=O)(=O)NC(C)(C)C)s2)CC1 [Compound 6, isopropyl (trans-4-(5-(2-(N-(tert-butyl)sulfamoyl)-4-(1H-pyrazol-3-yl)phenyl)thiazol-2-yl)cyclohexyl)carbamate] | 1000 to 10000 |
| CCNS(=O)(=O)c1cc(N(C)c2nccn2C)ccc1-c1cnc([C@H]2CC[C@H](NC(=O)OC(C)C)CC2)s1 [Compound 117, isopropyl trans-N-[4-[5-[2-(ethylsulfamoyl)-4-[methyl(1-methyl-1H-imidazol-2-yl)amino]phenyl]thiazol-2-yl]cyclohexyl]carbamate] | 100 to 1000 |
| CCNS(=O)(=O)c1cc(CC(=O)NCc2ccccc2)ccc1-c1cnc([C@H]2CC[C@H](NC(=O)OC(C)C)CC2)s1 [Compound 79, isopropyl trans-N-[4-[5-[4-[2-(benzylamino)-2-oxo-ethyl]-2-(ethyl-sulfamoyl)phenyl]thiazol-2-yl]cyclohexyl]carbamate] | < 100 |
| CC(C)OC(=O)N[C@H]1CC[C@H](c2ncc(-c3ccc(-c4ccc5c[nH]nc5c4)cc3S(=O)(=O)NC(C)(C)C)s2)CC1 [Compound 9, isopropyl (trans-4-(5-(2-(N-(tert-butyl)sulfamoyl)-4-(2H-indazol-6-yl)phenyl)thiazol-2-yl)cyclohexyl)carbamate] | 1000 to 10000 |
| CCNS(=O)(=O)c1cc(N(C)CCO)ccc1-c1cnc(C2CCC(NC(=O)OC(C)C)CC2)s1 (stereo not drawn) [Compound 131, isopropyl trans-N-[4-[5-[2-(ethylsulfamoyl)-4-[(2-hydroxyethyl) (methyl))amino]phenyl]thiazol-2-yl]cyclohexyl]carbamate] | < 100 |
